Reference: the OPERA property sets (Mansouri et al. 2018)
Converted amounts (≈) assume the structure as drawn.

Details: not given

| Structure (SMILES) | solubility |
| --- | --- |
| CC1=CCCN1C | 1340 mM (≈ 130000 µg/mL) |
| CC(C)CCOCC(O)COCCC(C)C | 43 mM (≈ 10000 µg/mL) |
| CC12CCC(C(CO)C1=O)C2(C)C (stereo not drawn) | 610 mM (≈ 111000 µg/mL) |
| O=C(OCCCO)c1ccccc1 | 55.5 mM (≈ 10000 µg/mL) |
| COc1ccc(OC)c([N+](=O)[O-])c1 | 0.764 mM (≈ 140 µg/mL) |
| CC(=O)OCCCOC(C)=O | 624 mM (≈ 100000 µg/mL) |
| CN(C)C1CCC=CCCC1 (stereo not drawn) | 25.1 mM (≈ 3850 µg/mL) |
| Cn1c(=O)ncc2[nH]c(=O)[nH]c21 | 161 mM (≈ 26700 µg/mL) |
| CCOC(=O)c1c(C(=O)O)ccc(OC)c1OC | 5.58 mM (≈ 1420 µg/mL) |
| CC(C)(S(C)(=O)=O)S(C)(=O)=O | 35.4 mM (≈ 7100 µg/mL) |
| CCSS(=O)(=O)CC | 77.8 mM (≈ 12000 µg/mL) |
| CCOC(C)C(=O)C=O (stereo not drawn) | 699 mM (≈ 91000 µg/mL) |
| O=C(c1cccc2ccccc12)N(O)c1ccccc1 | 0.114 mM (≈ 30 µg/mL) |
| Cc1nn(-c2ccccc2)c(N)c1C | 21.4 mM (≈ 4000 µg/mL) |
| CCOCCOC(=O)CCCCC(=O)OCCOCC | 8.61 mM (≈ 2500 µg/mL) |
| NC(CO)C(=O)N[C@@H](CO)C(=O)O (stereo in doubt) | 260 mM (≈ 50000 µg/mL) |
| CCCCOC(=O)CCOC | 61.2 mM (≈ 9800 µg/mL) |
| CC1NC(=O)CNC1=O (stereo not drawn) | 1950 mM (≈ 250000 µg/mL) |
| CCOC(=O)N(C)CC | 381 mM (≈ 50000 µg/mL) |
| CC(C)SS(=O)C(C)C (stereo not drawn) | 150 mM (≈ 25000 µg/mL) |

Same assay, conditions: 20 °C

| Structure (SMILES) | solubility |
| --- | --- |
| Clc1cnc2ncncc2n1 | 75 mM (≈ 12500 µg/mL) |
| O=C(O)CCNC(=O)Nc1ccc([N+](=O)[O-])cc1 | 1.97 mM (≈ 500 µg/mL) |
| CN[C@@H](Cc1ccc(O)cc1)C(=O)O | 7.37 mM (≈ 1440 µg/mL) |
| O/N=C1\C=CCCC1 | 146 mM (≈ 16200 µg/mL) |
| NC(=O)C(N)C(O)C(=O)O (stereo not drawn) | 70.9 mM (≈ 10500 µg/mL) |
| CN(C)c1ncc2nccnc2n1 | 2280 mM (≈ 400000 µg/mL) |
| NC1=NC(C(=O)O)CCS1 (stereo not drawn) | 187 mM (≈ 30000 µg/mL) |
| Cc1ncnc2nc[nH]c12 | 1490 mM (≈ 200000 µg/mL) |
| O=C(O)c1ccc(Cl)o1 | 19.1 mM (≈ 2800 µg/mL) |
| Cn1c(=O)cnc2cncnc21 | 123 mM (≈ 20000 µg/mL) |
| COc1ccc(C(=O)O)cc1C(=O)O | 0.765 mM (≈ 150 µg/mL) |
| Nc1ncc2nccnc2n1 | 5.04 mM (≈ 741 µg/mL) |
| O=S(CCCl)CCCl | 68.5 mM (≈ 12000 µg/mL) |
| COCc1ccccc1 | 24.6 mM (≈ 3000 µg/mL) |
| CC(=O)Nc1ccc(C)cc1F | 18.2 mM (≈ 3040 µg/mL) |
| CC(C)Cc1ncc[nH]1 | 89.4 mM (≈ 11100 µg/mL) |
| Nc1ncc2[nH]cnc2n1 | 61.7 mM (≈ 8330 µg/mL) |
| NC(=O)C(Br)Br | 87.6 mM (≈ 19000 µg/mL) |
| CC(C)Cc1nnc(NS(=O)(=O)c2ccc(N)cc2)s1 | 0.15 mM (≈ 47 µg/mL) |

| Structure (SMILES) | solubility |
| --- | --- |
| O=C(O)C(O)C(O)c1ccccc1 (stereo not drawn) | 494 mM (≈ 90000 µg/mL) |
| Cn1cnc2c(=O)n(C)c(=O)n(C)c2c1=O | 10.4 mM (≈ 2300 µg/mL) |
| CC(C)(C)S(=O)(=O)C(C)(C)C | 60.6 mM (≈ 10800 µg/mL) |
| CC(=O)NCC(=O)Nc1ccccc1 | 27.1 mM (≈ 5200 µg/mL) |
| c1ccc2c3c(ccc2c1)Sc1ccc2ccccc2c1N3 | 1.24e-05 mM (≈ 0.0037 µg/mL) |
| O=c1cc[nH]cn1 | 3850 mM (≈ 370000 µg/mL) |
| O=c1[nH]c2cncnc2[nH]1 | 30.6 mM (≈ 4170 µg/mL) |
| O=C(O)c1occ(Br)c1Br | 8.15 mM (≈ 2200 µg/mL) |
| CC(C)OC(=O)c1c(C(=O)O)cccc1[N+](=O)[O-] | 3.24 mM (≈ 820 µg/mL) |
| CC(C)(C(=O)O)C(C)(CC(=O)O)C(=O)O (stereo not drawn) | 774 mM (≈ 169000 µg/mL) |
| CCOC(=O)c1ccccc1C(=O)c1ccccc1 | 0.393 mM (≈ 100 µg/mL) |
| S=c1nc[nH]c2nccnc12 | 2.25 mM (≈ 370 µg/mL) |
| CCOC(=O)c1[nH]c(C=O)c(CC)c1C | 1.91 mM (≈ 400 µg/mL) |
| CSc1ncc2nccnc2n1 | 17.5 mM (≈ 3130 µg/mL) |
| O=CC(O)C(O)C(O)[C@H](O)C(O)CO (stereo in doubt) | 476 mM (≈ 100000 µg/mL) |
| O=C(O)c1c(Cl)ccc2ccccc12 | 4.84 mM (≈ 1000 µg/mL) |
| Cn1c(=O)c2n[se]nc2n(C)c1=O | 5.02 mM (≈ 1230 µg/mL) |
| CCCC(O)(CCC)C(O)c1ccccc1 (stereo not drawn) | 2.25 mM (≈ 500 µg/mL) |
| O=C(O)CCCP(=O)(O)O | 3170 mM (≈ 533000 µg/mL) |

Same assay, conditions: 21 °C

| Structure (SMILES) | solubility |
| --- | --- |
| O=C(O)COc1ccc([N+](=O)[O-])cc1[N+](=O)[O-] | 11.6 mM (≈ 2800 µg/mL) |
| CNC(CC(=O)O)C(=O)O (stereo in doubt) | 176 mM (≈ 25900 µg/mL) |

Same assay, conditions: 22 °C

| Structure (SMILES) | solubility |
| --- | --- |
| Nc1c(Br)cc(Br)c(S(=O)(=O)O)c1Br | 324 mM (≈ 133000 µg/mL) |
| O=C1CCCCCCCCCCCCCCCCCN1 | 1.42 mM (≈ 400 µg/mL) |

Same assay, conditions: 23 °C

| Structure (SMILES) | solubility |
| --- | --- |
| O=c1[nH]c(=O)c2cc([N+](=O)[O-])cc([N+](=O)[O-])c2[nH]1 | 0.623 mM (≈ 157 µg/mL) |
| CCCC(N)C(=O)O (racemic) | 805 mM (≈ 94300 µg/mL) |
| Nc1cc([N+](=O)[O-])ccc1O | 6 mM (≈ 925 µg/mL) |

Same assay, conditions: 25 °C

| Structure (SMILES) | solubility |
| --- | --- |
| NS(=O)(=O)c1ccc(S(N)(=O)=O)cc1 | 2.96 mM (≈ 700 µg/mL) |
| CCCCCCCC(C(=O)O)C(=O)O | 9.1 mM (≈ 1840 µg/mL) |
| CCCOP(=O)(OCC)OCCC | 105 mM (≈ 22000 µg/mL) |
| Nc1cc(S(=O)(=O)O)ccc1C(=O)O | 48.3 mM (≈ 10500 µg/mL) |
| Oc1cnn(-c2ccccc2)c1 | 10.9 mM (≈ 1750 µg/mL) |
| NC(=O)c1ccc(S(N)(=O)=O)cc1 | 4.99 mM (≈ 1000 µg/mL) |
| CC(=O)NCCNC(C)=O | 4740 mM (≈ 683000 µg/mL) |
| CCOP(=O)(OCC)C(Cl)(Cl)Cl | 17.6 mM (≈ 4500 µg/mL) |
| O=C(O)c1ccc(F)c([N+](=O)[O-])c1 | 26.2 mM (≈ 4860 µg/mL) |
| CC(C)(CCC(C)(C)CC(=O)O)CC(=O)O | 0.738 mM (≈ 170 µg/mL) |
| CNC(=O)N(C)C(=O)CC#N | 1480 mM (≈ 230000 µg/mL) |
| O=C1C(=O)c2ccccc2-c2ccccc21 | 0.036 mM (≈ 7.5 µg/mL) |
| CCCOC(=O)CCOC | 219 mM (≈ 32000 µg/mL) |
| CCCCC(O)CN(N=Cc1ccc([N+](=O)[O-])o1)C(N)=O (stereo not drawn) | 0.268 mM (≈ 80 µg/mL) |
| CCCOCCC(=O)OCCC | 20.7 mM (≈ 3600 µg/mL) |
| O=C(O)CSCC(=O)O | 2660 mM (≈ 400000 µg/mL) |
| CCC1OC(=O)c2ccccc21 (stereo not drawn) | 17.9 mM (≈ 2900 µg/mL) |
| CCCCCCCCOC(=O)c1cccnc1 | 0.807 mM (≈ 190 µg/mL) |
| Oc1ccc(C2CCCCC2)c(O)c1 | 2.65 mM (≈ 510 µg/mL) |
| CCCCOP(=O)(OC)OCCCC | 31.7 mM (≈ 7100 µg/mL) |
| CCCCCCCCCC(C(=O)O)C(=O)O | 0.499 mM (≈ 115 µg/mL) |
| Cc1ccc(S(=O)(=O)Oc2ccccc2C)cc1 | 0.114 mM (≈ 30 µg/mL) |
| CCSC(=S)N[C@@H](CC(=O)O)C(=O)O | 41.1 mM (≈ 9750 µg/mL) |

| Structure (SMILES) | solubility |
| --- | --- |
| Cc1cc(C)c(C)cn1 | 165 mM (≈ 20000 µg/mL) |
| C[C@@H](N)[C@@H](O)c1ccccc1 | 132 mM (≈ 20000 µg/mL) |
| O=C(O)c1ccc(Br)c([N+](=O)[O-])c1 | 1.08 mM (≈ 265 µg/mL) |
| O=c1ccccc(Br)c1O | 3.67 mM (≈ 738 µg/mL) |
| CCOC(=S)SC(CC(=O)O)C(=O)O (stereo not drawn) | 101 mM (≈ 24100 µg/mL) |
| CCOC(=O)CCc1ccccc1 | 1.23 mM (≈ 220 µg/mL) |
| O=C(O)CC1NC(=O)NC1=O (stereo not drawn) | 70.5 mM (≈ 11100 µg/mL) |
| CC(=O)c1cc(O)c(O)c(O)c1 | 33.8 mM (≈ 5680 µg/mL) |
| O=C(O)c1cccs1 | 58.5 mM (≈ 7500 µg/mL) |
| Cc1cc(O)c(Cc2ccccc2)c(C)c1Cl | 0.05 mM (≈ 12.3 µg/mL) |
| CCCC(C)(O)CCC | 25.9 mM (≈ 3370 µg/mL) |
| Cc1ccccc1N(C)C(N)=O | 395 mM (≈ 64900 µg/mL) |
| Cc1ccc(/N=N/c2cc(C)ccc2N)cc1 | 0.125 mM (≈ 28.2 µg/mL) |
| Nc1cc([N+](=O)[O-])ccc1I | 0.0379 mM (≈ 10 µg/mL) |
| CC(CC(C)C(=O)O)C(=O)O (stereo not drawn) | 350 mM (≈ 56000 µg/mL) |
| O=C(O)c1ccc(NC(=O)c2cccnc2)cc1 | 0.826 mM (≈ 200 µg/mL) |
| NP(N)(=O)c1ccccc1 | 71.1 mM (≈ 11100 µg/mL) |
| O=C(O)[C@@H]1CC[C@H](C(=O)O)SS1 | 44.9 mM (≈ 9360 µg/mL) |
| C[Si](C)(O)O[Si](C)(C)O | 661 mM (≈ 110000 µg/mL) |
| Cc1ccccc1OCC(=O)O | 3.61 mM (≈ 600 µg/mL) |
| O=C(O)c1ccc([N+](=O)[O-])c(C(=O)O)c1 | 45.8 mM (≈ 9670 µg/mL) |
| CC(C)C[C@H](NC=O)C(=O)O (racemic) | 185 mM (≈ 29500 µg/mL) |
| O=c1ccc(Br)ccc1O | 0.274 mM (≈ 55 µg/mL) |

Same assay, conditions: 26 °C

| Structure (SMILES) | solubility |
| --- | --- |
| N#CCCNC(Cc1ccccc1)C(=O)O (racemic) | 32.1 mM (≈ 7000 µg/mL) |

Same assay, conditions: 30 °C

| Structure (SMILES) | solubility |
| --- | --- |
| CCCCCCOC(=O)c1ccc(O)cc1 | 0.112 mM (≈ 25 µg/mL) |
